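Cells were grown in 96-well plates and exposed to each compound for 48 hours at five concentrations; endpoints were interpolated linearly between bracketing concentrations, or set to the highest concentration if not reached. Abbreviation: GI50, concentration required for 50% inhibition of growth.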 Active and inactive are the calls of the source. No stated cut-off is given here; in the data, active = GI50 up to about 1.1 µM and inactive = higher.
Assays:
Experiment in all cases: DTP human tumour cell line panel, 48 h
[1] = tested on: 786-0
[2] = tested on: CAKI-1
[3] = tested on: EKVX
[4] = tested on: HOP-92
[5] = tested on: HT-29
[6] = tested on: KM12
[7] = tested on: M14
[8] = tested on: MCF7
[9] = tested on: MDA-MB-231
[10] = tested on: MDA-MB-435
[11] = tested on: MOLT-4
[12] = tested on: NCI-H226
[13] = tested on: NCI-H23
[14] = tested on: OVCAR-4
[15] = tested on: OVCAR-8
[16] = tested on: SF-268
[17] = tested on: SK-MEL-2
[18] = tested on: A498
[19] = tested on: TK-10
[20] = tested on: U-251

Measured: GI50

CN(C)CCCCN1CCc2c(n(C)c3ccccc23)C1=O
inactive: [1] 61.1 µM | [2] > 55.8 µM | [3] 51.5 µM | [4] 32 µM | [5] 24.3 µM | [6] 68.7 µM | [7] 18.5 µM | [8] 37.3 µM | [9] 24.6 µM | [10] 17.5 µM | [11] 48.1 µM | [12] > 61.5 µM | [13] 82 µM | [14] > 86.7 µM | [15] > 83.4 µM | [16] 48.1 µM | [17] 25.9 µM

O=C(/C=C1\Nc2ccc([N+](=O)[O-])cc2N=C1NC12CC3CC(CC(C3)C1)C2)c1ccccc1
inactive: [1] 4.21 µM | [18] 3.85 µM | [2] > 10 µM | [3] > 10 µM | [5] > 10 µM | [6] > 10 µM | [7] > 10 µM | [8] > 10 µM | [9] 4.7 µM | [10] > 10 µM | [12] 5.5 µM | [13] > 10 µM | [14] 3.96 µM | [15] 9.64 µM | [16] > 10 µM | [17] > 10 µM | [19] 9.91 µM | [20] 7.16 µM

NC(=O)c1ccc[n+](C2=C([N-]S(=O)(=O)c3ccccc3)C(=O)c3ccccc3C2=O)c1
inactive: [1] 17.8 µM | [2] 22.1 µM | [3] 14.3 µM | [4] 13.6 µM | [5] 17.1 µM | [6] 13.1 µM | [7] 15.7 µM | [8] 14.8 µM | [9] 18.1 µM | [10] 4.89 µM | [11] 25.2 µM | [12] 14.7 µM | [13] 14.9 µM | [14] 1.17 µM | [15] 14.9 µM | [16] 16.6 µM | [17] 12.8 µM | [19] 20.4 µM | [20] 15.1 µM

CCOC(=O)c1cc2c3ccn(Cc4ccccc4)c3c3c(C)noc3c2[nH]1
inactive: [1] > 100 µM | [18] > 100 µM | [2] > 100 µM | [3] > 100 µM | [6] > 100 µM | [7] > 100 µM | [8] > 100 µM | [9] > 100 µM | [10] > 100 µM | [11] > 100 µM | [12] > 100 µM | [13] > 100 µM | [14] > 100 µM | [15] > 100 µM | [16] > 100 µM | [17] > 100 µM | [19] > 100 µM | [20] > 100 µM

O=C(/C=C\c1ccccc1-c1ccccc1)c1ccccc1
inactive: [1] > 100 µM | [18] > 100 µM | [2] > 100 µM | [3] > 100 µM | [4] > 100 µM | [5] > 100 µM | [6] 29.4 µM | [7] > 100 µM | [9] 12.2 µM | [10] > 100 µM | [11] 92 µM | [12] > 100 µM | [13] 33.3 µM | [14] 11.1 µM | [15] > 100 µM | [16] > 100 µM | [19] > 100 µM | [20] > 100 µM

CCOP(=O)(OCC)OC1c2[nH]ccc2-c2cc(C(=O)OC)[nH]c2C1OC (centres undefined)
inactive: [1] > 100 µM | [2] 70.3 µM | [3] > 100 µM | [5] > 100 µM | [6] 58.7 µM | [7] > 100 µM | [8] > 100 µM | [9] 31.6 µM | [10] 77.4 µM | [11] > 100 µM | [13] > 100 µM | [14] > 100 µM | [15] > 100 µM | [16] > 100 µM | [17] > 100 µM | [19] 73.6 µM | [20] > 100 µM

c1csc(-c2sc(-c3ccsc3)cc2Cc2ccsc2)c1
inactive: [1] > 10 µM | [2] > 10 µM | [3] > 10 µM | [4] > 10 µM | [5] > 10 µM | [6] > 10 µM | [7] > 10 µM | [8] > 10 µM | [9] > 10 µM | [10] > 10 µM | [11] > 10 µM | [13] > 10 µM | [14] > 10 µM | [15] > 10 µM | [16] > 10 µM | [19] > 10 µM

Cn1c(=O)c2c(ncn2Cc2ccc(O)c([N+](=O)[O-])c2)n(C)c1=O
inactive: [1] > 100 µM | [18] > 100 µM | [2] > 100 µM | [3] > 100 µM | [5] > 100 µM | [6] > 100 µM | [7] > 100 µM | [8] > 100 µM | [9] > 100 µM | [10] > 100 µM | [11] > 100 µM | [12] > 100 µM | [13] > 100 µM | [14] > 100 µM | [15] > 100 µM | [16] > 100 µM | [17] > 100 µM | [19] > 100 µM | [20] > 100 µM

CC1CC/C(=C\c2ccc(F)cc2)C2=C1C(c1ccc(F)cc1)NC(=S)N2 (centres undefined)
inactive: [1] 63.4 µM | [18] 30.5 µM | [2] 57.8 µM | [3] 12.9 µM | [5] 29 µM | [6] 24.7 µM | [7] 50.9 µM | [8] 53.3 µM | [9] 47.8 µM | [10] 57.7 µM | [11] 49.2 µM | [12] 46.1 µM | [13] 30.7 µM | [15] 86.7 µM | [16] 91.4 µM | [17] 28.2 µM | [19] 79.3 µM | [20] 61.4 µM

O=C(NN=C1CCN(Cc2ccccc2)CC1)C(O)(c1ccccc1)c1ccccc1
inactive: [1] > 100 µM | [3] > 100 µM | [4] > 100 µM | [5] > 100 µM | [6] > 100 µM | [7] > 100 µM | [8] > 100 µM | [9] > 100 µM | [10] > 100 µM | [11] > 100 µM | [12] > 100 µM | [13] > 100 µM | [14] > 100 µM | [15] > 100 µM | [16] > 100 µM | [19] > 100 µM | [20] > 100 µM

CCC1(c2ccc(OC)c(OC)c2)CCN2C(=O)C(O)CC21 (centres undefined)
inactive: [1] > 100 µM | [2] > 100 µM | [3] > 100 µM | [5] > 100 µM | [6] > 100 µM | [7] > 100 µM | [8] > 100 µM | [9] > 100 µM | [10] > 100 µM | [11] > 100 µM | [12] > 100 µM | [13] > 100 µM | [14] > 100 µM | [16] > 100 µM | [17] > 100 µM | [19] > 100 µM | [20] > 100 µM

CSC(=S)Nc1cc(C)ccn1
inactive: [1] 75.2 µM | [2] > 100 µM | [3] > 100 µM | [4] 79.3 µM | [5] > 100 µM | [6] > 100 µM | [7] > 100 µM | [8] > 100 µM | [9] 33.1 µM | [10] > 100 µM | [11] > 100 µM | [12] > 100 µM | [13] > 100 µM | [14] 39.1 µM | [15] > 100 µM | [16] 70 µM | [17] 93.5 µM | [19] > 100 µM | [20] 67.8 µM

CC(=O)NC(Cc1ccc(OP(=O)(OCc2ccc([N+](=O)[O-])o2)N(C)CCCCCl)cc1)C(=O)NC(C)c1ccc(OCC2CCCCC2)c(C(N)=O)c1 (centres undefined)
inactive: [1] 3.37 µM | [18] 18.9 µM | [2] 21.3 µM | [5] 2.25 µM | [6] 2.68 µM | [7] 2.22 µM | [8] 2.25 µM | [9] 2.05 µM | [10] 2.31 µM | [11] 3.53 µM | [12] 5.94 µM | [13] 2.21 µM | [14] 3.66 µM | [15] 7.48 µM | [16] 2.24 µM | [17] 3.08 µM | [19] 11.4 µM | [20] 2.48 µM

COc1ccc(C(=O)/C=C/c2ccc(OCCSCCCCCCCCCCSCCOc3ccc(/C=C/C(=O)c4ccc(OC)c(OC)c4)cc3)cc2)cc1OC
inactive: [1] > 100 µM | [18] > 100 µM | [2] > 100 µM | [3] > 100 µM | [5] > 100 µM | [6] > 100 µM | [7] > 100 µM | [8] > 100 µM | [9] > 100 µM | [10] > 100 µM | [11] > 100 µM | [13] > 100 µM | [15] > 100 µM | [16] > 100 µM | [19] > 100 µM

CC(C)=CCC/C(C)=C/Cc1c2c(c3oc(-c4ccc(O)c(O)c4)c(O)c(=O)c3c1O)C=CC(C)(C)O2
inactive: [1] 1.85 µM | [18] 6.32 µM | [2] 1.78 µM | [5] 2.71 µM | [6] 3.45 µM | [7] 2.8 µM | [8] 2.79 µM | [9] 5.74 µM | [10] 5.33 µM | [11] 1.77 µM | [12] 6.22 µM | [13] 5.41 µM | [14] 2.25 µM | [15] 2.05 µM | [16] 3.56 µM | [17] 6.58 µM | [19] 5.24 µM | [20] 3.21 µM
